This note sets out measurements from US12215112B2, “CD151 inhibitors” (ESFAM BIOTECH PTY LTD, priority 2020, dated 2025).

For orientation: IC50 means the point on the concentration scale where inhibition reaches its midpoint.

In this experiment the test system is PC3 cells. In words: xCELLigence RTCA real-time cell invasion assay (CIM plate, Matrigel) on PC3 prostate cancer cells. In kind it is cell-based. As to conditions: Homo sapiens, PC-3, compound 25 uM to 1 uM, cell index monitored for 72 hours, four-parameter dose-response curve, read-out: IC50, Effect of compounds on the invention on prostate cancer cells. How it is done:
The media antibiotics and serum were purchased from Invitrogen (Life Technologies). PC3 cells were purchased from ATCC (Granville, NSW, Australia). PC3 cells were expanded in cell culture T75 flasks with vented cap and then preserved in low passage number. The medium used for PC3 cells was RPMI (GlutaMAX) supplemented with 10% FCS and 1% penicillin/streptomycin (culture media). The cells were maintained at 37° C. in a humidified 95% (v/v) air/5% (v/v) CO2 environment and were grown up to 80% confluence.
XCELLigence® real-time cell analysis (RTCA) instrument (ACEA Biosciences), 16-well ACEA CIM-Plates, 16-well ACEA E-Plat and assembly tool were purchased from ELITechGroup empowering IVD (Braeside, Australia). The Matrigel was purchased from Corning (Australia).
To measure cell invasion under compound treatment the upper chamber of the CIM plate was coated with 5% Matrigel diluted in SF RPMI (20 μl) and incubated in a 37° C. tissue culture incubator for four hours. Using the assembly tool to support the chambers the lower chamber was filled with (160 μl) of culture media containing the compound in specific concertation from 25 uM to 1 uM and two controls (DMSO 0.1% and ESFAM 4C 10 uM) (see the schematic in FIG. 1). Once the upper chamber was placed on the top of the lower chamber it was loaded with (40 μl) serum-free (SF) RPMI containing the compound as previously stated. After one hour calibration in 37° C., plates were placed into the xCELLigence station, and the base-line electric impedance was measured to confirm that all wells and connections were working properly. In case of connection problem, the software automatically informs the researcher about the nature of the problem in the message section. Subsequently cells were trypsinized and upon harvesting and counting they were diluted in SF RPMI to desired density (3×10^4) and seeded (100 μl) in the wells. After 30 minutes of incubation in room-temperature to allow cell attachment the plates were loaded in the xCELLigence RTCA DP machine. The cell invasion was monitored in real-time for the duration of 72 hours. […]
The xCELLigence system automatically monitored the electrical impedance value of each well and expressed as a cell index (CI) value for the duration of 72 hours. The data for treatments was automatically grouped as the mean±standard deviation. The software version used in these experiments is 1.2.1. The electronic record of the experimental data is automatically saved in file that cannot be altered or changed by the researcher.
Statistical analysis was performed using Microsoft® Office EXCEL and GraphPad Prism 7. The IC50 was calculated from the four-parameter dose-response curve (log(inhibitor) vs. response-variable slopes). Where the row-data was inserted in GraphPad Prism 7 (Dose response x-log(dose)) and analysed for XY nonlinear regression (curve fit), dose response-inhibition, log(inhibitor) vs response variable slope (four parameters). For the IC90 calculation the log(IC50)=log(IC90)-(1/HillSlope)*log(9) equation was used in EXCEL based on the raw data extracted from xCELLigence system and the dose-response curve.
Regarding `CC(C)(C)c1c(C(=O)Nc2cccc(O)c2)nn2c(-c3cn[nH]c3)cc(N3Cc4ccccc4C3)nc12` [Cmpd 85], the IC50 was found to be 6.51 µM.

`CN(Cc1ccccc1)c1cc(-c2cn[nH]c2)n2nc(C(=O)Nc3cccc(O)c3)cc2n1` [Compound 1, 5-(benzyl(methyl)amino)-N-(3-hydroxyphenyl)-7-(1H-pyrazol-4-yl)pyrazolo[1,5-a]pyrimidine-2-carboxamide]: the concentration for half-maximal inhibition (IC50) amounted to 6.9 µM.

Consider `CN(Cc1ccccc1)c1cc(-c2cn[nH]c2)n2nc(C(N)=O)cc2n1` [Compound 2, 5-(benzyl(methyl)amino)-7-(1H-pyrazol-4-yl)pyrazolo[1,5-a]pyrimidine-2-carboxamide], for which the IC50 was 16.9 µM.

On to `CN(Cc1ccccc1)c1cc(-c2cn[nH]c2)n2nc(C(=O)NCc3ccccc3)cc2n1` [Compound 3, N-benzyl-5-(benzyl(methyl)amino)-7-(1H-pyrazol-4-yl)pyrazolo[1,5-a]pyrimidine-2-carboxamide], for which the IC50 amounted to 11.9 µM.

On to `CN(Cc1ccccc1)c1cc(-c2cn[nH]c2)n2nc(C(=O)Nc3ccc(O)cc3)cc2n1` [Compound 4, 5-(benzyl(methyl)amino)-N-(4-hydroxyphenyl)-7-(1H-pyrazol-4-yl)pyrazolo[1,5-a]pyrimidine-2-carboxamide], for which the IC50 was 0.81 µM.

As for `COc1cccc(NC(=O)c2cc3nc(N(C)Cc4ccccc4)cc(-c4cn[nH]c4)n3n2)c1` [Compound 5, 5-(benzyl(methyl)amino)-N-(3-methoxyphenyl)-7-(1H-pyrazol-4-yl)pyrazolo[1,5-a]pyrimidine-2-carboxamide], the IC50 came to 1.2 µM.

In the case of `CN(Cc1ccccc1)c1cc(-c2cn[nH]c2)n2nc(C(=O)Nc3cccnc3)cc2n1` [Compound 6, 5-(benzyl(methyl)amino)-7-(1H-pyrazol-4-yl)-N-(pyridin-3-yl)pyrazolo[1,5-a]pyrimidine-2-carboxamide], the IC50 came to 11.7 µM.

For `CN(Cc1ccccc1)c1cc(-c2cn[nH]c2)n2nc(C(=O)Nc3ccncc3)cc2n1` [Compound 7, 5-(benzyl(methyl)amino)-7-(1H-pyrazol-4-yl)-N-(pyridin-4-yl)pyrazolo[1,5-a]pyrimidine-2-carboxamide], the IC50 came out at 9.49 µM.

As to `COc1cc(NC(=O)c2cc3nc(N(C)Cc4ccccc4)cc(-c4cn[nH]c4)n3n2)ccn1` [Compound 8, 5-(benzyl(methyl)amino)-N-(2-methoxypyridin-4-yl)-7-(1H-pyrazol-4-yl)pyrazolo[1,5-a]pyrimidine-2-carboxamide], the IC50 is 5.2 µM.

Consider `COc1cc(NC(=O)c2cc3nc(N(C)Cc4ccccc4)cc(-c4cn[nH]c4)n3n2)cc(OC)c1` [Compound 9, 5-(benzyl(methyl)amino)-N-(3,5-dimethoxyphenyl)-7-(1H-pyrazol-4-yl)pyrazolo[1,5-a]pyrimidine-2-carboxamide], for which the IC50 is 4.28 µM.

`Cc1noc(C)c1NC(=O)c1cc2nc(N(C)Cc3ccccc3)cc(-c3cn[nH]c3)n2n1` [Compound 10, 5-(benzyl(methyl)amino)-N-(3,5-dimethylisoxazol-4-yl)-7-(1H-pyrazol-4-yl)pyrazolo[1,5-a]pyrimidine-2-carboxamide]: the IC50 came out at 3.71 µM.

Turning to `CN(Cc1ccccc1)c1cc(-c2cn[nH]c2)n2nc(C(=O)Nc3cn[nH]c3)cc2n1` [Compound 11, 5-(benzyl(methyl)amino)-N,7-di(1H-pyrazol-4-yl)pyrazolo[1,5-a]pyrimidine-2-carboxamide], the IC50 amounted to 9.71 µM.

As to `CN(Cc1ccccc1)c1cc(-c2cn[nH]c2)n2nc(C(=O)Nc3ccc(C#N)cc3)cc2n1` [Compound 12, 5-(benzyl(methyl)amino)-N-(4-cyanophenyl)-7-(1H-pyrazol-4-yl)pyrazolo[1,5-a]pyrimidine-2-carboxamide], the IC50 amounted to 6.64 µM.

With `CN(Cc1ccccc1)c1cc(-c2cn[nH]c2)n2nc(C(=O)Nc3cccc(C#N)c3)cc2n1` [Compound 13, 5-(benzyl(methyl)amino)-N-(3-cyanophenyl)-7-(1H-pyrazol-4-yl)pyrazolo[1,5-a]pyrimidine-2-carboxamide], the IC50 was 4.71 µM.

Take `COc1cccc(NC(=O)c2cc3nc(N(C)[C@@H](C)c4ccccc4)cc(-c4cn[nH]c4)n3n2)c1` [Compound 14, (S)—N-(3-methoxyphenyl)-5-(methyl(1-phenylethyl)amino)-7-(1H-pyrazol-4-yl)pyrazolo[1,5-a]pyrimidine-2-carboxamide]: the IC50 was 1.96 µM.

For `C[C@@H](c1ccccc1)N(C)c1cc(-c2cn[nH]c2)n2nc(C(=O)Nc3cccc(O)c3)cc2n1` [Compound 15, (S)—N-(3-hydroxyphenyl)-5-(methyl(1-phenylethyl)amino)-7-(1H-pyrazol-4-yl)pyrazolo[1,5-a]pyrimidine-2-carboxamide], the IC50 came out at 1.02 µM.

Regarding `C[C@@H](c1ccccc1)N(C)c1cc(-c2cn[nH]c2)n2nc(C(=O)Nc3ccccc3)cc2n1` [Compound 16, (S)-5-(methyl(1-phenylethyl)amino)-N-phenyl-7-(1H-pyrazol-4-yl)pyrazolo[1,5-a]pyrimidine-2-carboxamide], the IC50 is 150 µM.

As to `C[C@@H](c1ccccc1)N(C)c1cc(-c2cn[nH]c2)n2nc(C(N)=O)cc2n1` [Compound 17, (S)-5-(methyl(1-phenylethyl)amino)-7-(1H-pyrazol-4-yl)pyrazolo[1,5-a]pyrimidine-2-carboxamide], the IC50 worked out at 9.67 µM.

Regarding `CC(C)Oc1cccc(NC(=O)c2cc3nc(N(C)Cc4ccccc4)cc(-c4cn[nH]c4)n3n2)c1` [Compound 18, 5-(benzyl(methyl)amino)-N-(3-isopropoxyphenyl)-7-(1H-pyrazol-4-yl)pyrazolo[1,5-a]pyrimidine-2-carboxamide], the IC50 amounted to 7.95 µM.

As to `CN(Cc1ccccc1)c1cc(-c2cn[nH]c2)n2nc(C(=O)Nc3cccc(OC(F)F)c3)cc2n1` [Compound 19, 5-(benzyl(methyl)amino)-N-(3-(difluoromethoxy)phenyl)-7-(1H-pyrazol-4-yl)pyrazolo[1,5-a]pyrimidine-2-carboxamide], the IC50 was 12.8 µM.

On to `CN(C)c1cccc(NC(=O)c2cc3nc(N(C)Cc4ccccc4)cc(-c4cn[nH]c4)n3n2)c1` [Compound 20, 5-(benzyl(methyl)amino)-N-(3-(dimethylamino)phenyl)-7-(1H-pyrazol-4-yl)pyrazolo[1,5-a]pyrimidine-2-carboxamide], for which the IC50 came to 3.56 µM.

Regarding `CN1CCN(c2cccc(NC(=O)c3cc4nc(N(C)Cc5ccccc5)cc(-c5cn[nH]c5)n4n3)c2)CC1` [Compound 22, 5-(benzyl(methyl)amino)-N-(3-(4-methylpiperazin-1-yl)phenyl)-7-(1H-pyrazol-4-yl)pyrazolo[1,5-a]pyrimidine-2-carboxamide], the IC50 stood at 3.71 µM.

Regarding `O=C(Nc1ccccc1)c1cc2nc(N3Cc4ccccc4C3)cc(-c3cn[nH]c3)n2n1` [Compound 23, 5-(isoindolin-2-yl)-N-phenyl-7-(1H-pyrazol-4-yl)pyrazolo[1,5-a]pyrimidine-2-carboxamide], the IC50 worked out at 2.83 µM.

As for `O=C(Nc1cccc(O)c1)c1cc2nc(N3Cc4ccccc4C3)cc(-c3cn[nH]c3)n2n1` [Compound 24, N-(3-hydroxyphenyl)-5-(isoindolin-2-yl)-7-(1H-pyrazol-4-yl)pyrazolo[1,5-a]pyrimidine-2-carboxamide], the IC50 is 1.42 µM.

Consider `COc1cccc(NC(=O)c2cc3nc(N4Cc5ccccc5C4)cc(-c4cn[nH]c4)n3n2)c1` [Compound 25, 5-(isoindolin-2-yl)-N-(3-methoxyphenyl)-7-(1H-pyrazol-4-yl)pyrazolo[1,5-a]pyrimidine-2-carboxamide], for which the IC50 worked out at 2.43 µM.

Regarding `O=C(Nc1cccc(OC(F)(F)F)c1)c1cc2nc(N3Cc4ccccc4C3)cc(-c3cn[nH]c3)n2n1` [Compound 26, 5-(isoindolin-2-yl)-7-(1H-pyrazol-4-yl)-N-(3-(trifluoromethoxy)phenyl)pyrazolo[1,5-a]pyrimidine-2-carboxamide], the IC50 was found to be 9.74 µM.

On to `CCOc1cccc(NC(=O)c2cc3nc(N4Cc5ccccc5C4)cc(-c4cn[nH]c4)n3n2)c1` [Compound 27, N-(3-ethoxyphenyl)-5-(isoindolin-2-yl)-7-(1H-pyrazol-4-yl)pyrazolo[1,5-a]pyrimidine-2-carboxamide], for which the IC50 was found to be 1.99 µM.
